Our source for the Ki values is BindingDB's records for doi:10.1021/jm00079a012 (Smithkline Beecham Pharmaceuticals, 1992).

SMILES strings stand for the structures.

Test [1] concerns the target Delta(24)-sterol reductase DHCR24 (Rattus norvegicus). As to the kind of experiment: Compound was tested for the inhibition of delta24-sterol reductase.
Test [2] has the same target. The test is described as above. The source holds these as a separate data set.

For the compound `CC(C)[S+](C)CC[C@@H](C)C1CCC2C3CC=C4C[C@@H](O)CC[C@]4(C)C3CC[C@@]21C` (stereo partly drawn), the Ki in test [1] amounted to 4 nM.

Regarding `C[C@H](CCC(N)=[N+](C)C)C1CC[C@@]2(C)C3=C(CC[C@]12C)[C@@]1(C)CC[C@H](O)C(C)(C)C1CC3` (stereo partly drawn), in test [2], the Ki is 12 nM.

Regarding `C[C@H](CCC(=N)N)C1CC[C@@]2(C)C3=C(CC[C@]12C)[C@@]1(C)CC[C@H](O)C(C)(C)C1CC3` (stereo partly drawn), the Ki in test [1] is 7 nM.
